Measured values taken from article PMC5007466, “VCP recruitment to mitochondria causes mitophagy impairment and neurodegeneration in models of Huntington's disease” (Nature Communications, 2016).

How the values were obtained:
[1] = tested on: Cathepsin B in HdhQ111 mouse striatal cells; experiment: Lysosomal Cathepsin B activity; format: cell-based; settings: 3 uM/day for 3 days
Method: (§1) Figure 5 Treatment of HV-3 reduces excessive mitophagy in HD cell cultures and HD mouse brains. (a) HdhQ7 and HdhQ111 cells were treated with control siRNA (con) or VCP siRNA (siVCP) for 48 h. Mitochondria were isolated and LC3 mitochondrial levels were determined by WB. Representative blots are from three independent experiments. The quantitation of LC3 II levels on mitochondria is provided on the right. VADC was used as a loading control. (b) Flag-VCP and GFP-LC3B were co-transfected into wild-type striatal cells. Mitochondria were isolated after 36 h of transfection. The GFP-LC3B levels on mitochondria were examined by WB. VDAC was used as a loading control. Representative blots are from three independent experiments. Histogram: quantitation of GFP-LC3B mitochondrial protein level. HdhQ7 and HdhQ111 cells were treated with control peptide TAT or peptide HV-3 (3 uM/day for 3 days). (c) HdhQ111 cells were transfected with GFP-LC3B for 24 h. The number of GFP-LC3B puncta was quantitated and shown in the histogram. Scale bars: 10 μm. (d) Enzyme activity of lysosomal Cathepsin B was measured using a Cathepsin B assay kit. […] (e) Mitochondrial mass was measured by the fluorescent density of Mitotracker green. […] Histogram: the number of mitophagosomes per 100 μm^2 was counted and quantitated. Fifteen random areas in the striatum of each animal were analyzed. […]

[2] = tested on: VCP/Htt interaction (GST-VCP with full-length Htt of mouse brain lysate); experiment: GST pull-down of VCP/Htt interaction; format: binding; settings: GST-VCP + total mouse brain lysate, 3 µM peptide, 16 h, n = 3
Method: Bacteria-expressed GST or GST–VCP, or GST–VCP truncated mutants were immobilized on glutathione-Sepharose 4B beads (GE Healthcare) for three hours and then washed three times. Beads were incubated with total lysates of mouse brains overnight at 4 °C. Beads were then washed with a GST binding buffer (100 mM NaCl, 50 mM NaF, 2 mM EDTA, 1% Triton-X-100 and protease inhibitor cocktail) and were analysed by SDS–PAGE and IB.
Supplementary Figure 4: Rational design of a peptide inhibitor to block VCP/Htt interaction. (a) GST or GST-VCP was incubated with total lysates of mouse brain and the indicated peptides ( 3 µM) for 16 hours, followed by immunoblotting with anti-Htt antibodies. Representative blots are from three independent experiments. Quantitation of VCP/Htt binding was shown below the blot as the m ean of three independent experiments. Data are mean ± SEM. *, p<0.05 vs. T AT -treated group (Paired Student’s t test). (b) HEK293 cells were co-expressed with GFP-VCP and Myc-73Q FL plasmids as indicated. After 48 hours incubation with the indicated peptides ( 3 µM/day, each), immunoprecipitation analysis was performed. The shown blots are from three independent experiments. (c) HEK293 cells were co-expressed with GFP-VCP and Myc-73Q FL plasmids as indicated. […] The blots of the bindings of mtHtt/VCP were quantitated with NIH Image J software. The IC50 was calculated. […]

[3] = tested on: HdhQ111 mouse striatal cells; experiment: GFP-LC3B puncta; format: cell-based; settings: 3 uM/day for 3 days
Method: as §1

[4] = tested on: HD patient-iPS cell derived neurons; experiment: Mitochondrial membrane potential (TMRM), iPS neurons; format: cell-based, human; settings: 1 μM per day for 5 days
Method: iPS cells from a normal subject and a HD patient (carrying 41 CAG repeats) were differentiated into neurons using the protocol from our previous studies. Briefly, iPS cells were plated onto 6-well plates precoated with 2.5% Matrigel and allowed to reach 90% confluence in feeder-free medium. For the first 10 days, cells were treated with SB431542 (10 μM; Tocris Bioscience) and Noggin (100 ng/ml) in Neural Media (NM) containing Neurobasal and DMEM (1:1), B27 supplement minus vitamin A (50 × , Invitrogen), N2 supplement (100 × , Invitrogen), GlutaMax (Invitrogen, 100 × ), FGF2 ([…]) and EGF ([…]), 100 units per ml penicillin and 100 μg ml^−1 streptomycin). […]
To determine mitochondrial mass in cultures, cells were stained with antibodies against Tom20 or stained with Mitotracker green. The fluorescent density of Tom20 (1:500) or mitotracker green was quantitated using NIH Image J software. […] The images were visualized by microscope and quantitation of the density of red fluorescence was carried out using NIH ImageJ software. For immunocytochemistry study, at least 100 cells per group were counted and quantitated by an observer blind to experimental conditions.

CSCC[C@H](NC(=O)[C@@H](NC(=O)[C@H](CC(C)C)NC(=O)[C@@H](NC(=O)[C@H](Cc1c[nH]cn1)NC(=O)CCCCCNC(=O)[C@H](CCCNC(=N)N)NC(=O)[C@H](CCCNC(=N)N)NC(=O)[C@H](CCCNC(=N)N)NC(=O)[C@H](CCC(N)=O)NC(=O)[C@H](CCCNC(=N)N)NC(=O)[C@H](CCCNC(=N)N)NC(=O)[C@H](CCCCN)NC(=O)[C@H](CCCCN)NC(=O)[C@H](CCCNC(=N)N)NC(=O)CNC(=O)[C@@H](N)Cc1ccc(O)cc1)C(C)C)C(C)C)C(=O)N[C@@H](CS)C(=O)N[C@@H](C)C(=O)N[C@H](C(N)=O)[C@@H](C)O [HV-3]
Cathepsin B activity [1]: reduced by treatment with HV-3
block of VCP/Htt interaction [2]: only the addition of peptide HV-3 blocks the interaction of VCP/Htt
number of GFP-LC3B puncta [3]: reduced by treatment with HV-3
mitochondrial membrane potential [4]: improved MMP
